Entries after “also recorded” stand apart in the source; their conditions may differ. Where no end group is shown, it is not given here. The star is where a group is joined. For = O=C*
Legend:
Nourin = details: in-vitro; cited from earlier work
Swine Flu H1N1 virus = details: mice inoculated with Swine Flu H1N1 virus; cited from earlier work
rabbit skin = details: within the first 30 minutes, neutrophil infiltration; cited from earlier work
HF patients = details: small study, wide confidence intervals; cited from earlier work
[1] = tested on: patients with ST-Segment Elevation Myocardial Infarction; details: EMBRACE STEMI trial; cited from earlier work
miR-137 [2] = details: spontaneously hypertensive rats; cited from earlier work
mRNA-ANAPC11 = assay: qPCR of Nourin RNA network in ISO rat model of HF: serum mRNA-ANAPC11 gene expression; type: in vivo; details: for reduction of mRNA-ANAPC11 gene expression: serum day 14
Description: (§1) The standard quantitative real time PCR (qPCR) molecular assay described in Example 6 was used to determine the levels of Nourin RNA network in the ISO rat model of ischemia-induced HF. It was tested if the hypothesis that the levels of gene expression of Nourin molecular RNA Network (miR-137, miRNA-106b, mRNA FTHL-17, mRNA ANAPC11 and lncR-CTB89H12.4) will be elevated in HF rats, and that CCrP treatment will reduce their gene expression of Nourin molecular RNA Network in a dose-response manner.
(§2) After 14 days, gene expression of Nourin-dependent miR-137 and miR-106b and their signaling pathways mRNA-FTLH-17, mRNA-ANAPC11 and lncR-CTB89H12.4 were evaluated by qRT-PCR (Example 6).

hearts in cold storage = assay: Heart cold storage for 6 hours in HH solution (UW+CCrP) vs UW
Description: (§3) Furthermore, there was a higher weight gain in control hearts (UW) after 6 hours of cold storage compared to the CCrP-treated hearts (HH). […] The observed reduction of heart edema in the CCrP hearts (HH) is crucial for the restoration of contractile function during reperfusion at the end of 6-hour storage. […] Lewis rats were used for both the donors and recipients to avoid immunologic rejection. This approach allowed a focus at determining the in vivo cardioprotective benefits of CCrP treatment and to evaluate whether CCrP would restore cardiac contractility after prolonged cold storage and increase graft survival. Echocardiography (ECHO) analyses were conducted 2 hours after transplantation at day 0 and at day 3 before sacrifice.

miR-137 [3] = assay: qPCR of Nourin RNA network in ISO rat model of HF: serum miR-137 gene expression; type: in vivo; details: for reduction of miR-137 gene expression: serum day 14, vs ISO/saline
Description: as §1, §2

mRNA-FTHL-17 = assay: qPCR of Nourin RNA network in ISO rat model of HF: serum mRNA-FTHL-17 gene expression; type: in vivo; details: for reduction of mRNA-FTHL-17 gene expression: serum day 14
Description: as §1, §2

[4] = Crossing of the blood-brain barrier
lncR-CTB89H12.4 = assay: qPCR of Nourin RNA network in ISO rat model of HF: serum lncR-CTB89H12.4 gene expression; type: in vivo; details: for increase of lncR-CTB89H12.4 gene expression: serum day 14
Description: as §1, §2

miR-106b = assay: qPCR of Nourin RNA network in ISO rat model of HF: serum miR-106b gene expression; type: in vivo; details: for reduction of miR-106b gene expression: serum day 14
Description: as §1, §2

ISO rat model of HF = assay: Standard isoproterenol (ISO) rat model of heart failure: CK-MB, ejection fraction, collagen, fibrosis, heart weight, physical activity; type: in vivo; parameters: heart weight: unit not given here; details: for Ejection Fraction (EF %) by ECHO: after 14 days
rat grafted hearts = assay: In vivo rat syngeneic abdominal heterotopic heart transplantation after 22-24 hours cold storage; details: after 22 and 24 hours of cold storage; control poor
Description: as §3
Saline-treated control donor rats were evidently dilated with an increase in the sizes of both ventricles and atria. Additionally, the color was mildly cyanotic and the contractility was poor and irregular in rhythm. In most control grafted hearts, their heart beating score ranged from 1+ to 2+ at day 0 and day 3. Protection was shown in most of CCrP grafted hearts at day 3 where the myocardial color and the consistency of the degree of contractility were almost the same as day zero. […] Most the control grafted hearts, on the other hand, continued to show evidence of ischemia as well as loss of wall thickness and cardiac mass by day 0 and day 3 (FIG. 43).

Description for healthy rats: After 14 days, ECHO analysis for Ejection Fraction (EF %) was conducted, as well as heart weight (mg), histologic analysis for fibrosis and deposition of collagen. Mean±S.E.M and one-way ANOVA analysis were used.

## C/C=C/C[C@@H](C)[C@@H](O)[C@H]1C(=O)N[C@@H](CC)C(=O)N(C)CC(=O)N(C)[C@@H](CC(C)C)C(=O)N[C@@H](C(C)C)C(=O)N(C)[C@@H](CC(C)C)C(=O)N[C@@H](C)C(=O)N[C@H](C)C(=O)N(C)[C@@H](CC(C)C)C(=O)N(C)[C@@H](CC(C)C)C(=O)N(C)[C@H](C(C)C)C(=O)N1C [Cyclosporin H]
Nourin
  Nourin activity: inhibited Nourin activity
Swine Flu H1N1 virus
  lung inflammation: significantly reduced lung inflammation

## Nourin: 3 KDa N-formyl peptide released by ischemic heart, inflammatory mediator (SEQ ID NO:15) (For-MIINHNLAAINSHRSPGADGNGGEAMPGGGR; listed as Homo sapiens)
Rabbit skin
  inflammatory response in skin: acute inflammatory response

## elamipretide
HF patients
  left ventricular volumes: reduce left ventricular volumes
[1]
  primary or secondary outcomes: did not improve the primary or secondary outcomes

## C[C@H](CS)C(=O)N1CCC[C@H]1C(=O)O [captopril]
miR-137 [2]
  miR-137 expression: inhibit miR-137 expression

## Cyclocreatine Phosphate [CCrP]
mRNA-ANAPC11; ISO/CCrP 0.4 g/kg
  reduction of mRNA-ANAPC11 gene expression: 18%
mRNA-ANAPC11; ISO/CCrP 0.8 g/kg
  reduction of mRNA-ANAPC11 gene expression: 31%
mRNA-ANAPC11; ISO/CCrP 1.2 g/kg
  reduction of mRNA-ANAPC11 gene expression: 70%
mRNA-ANAPC11; healthy rats, CCrP 0.8 g/kg, saline-treated healthy rats 1.0
  mRNA-ANAPC11 gene expression (Mean): 0.9
Hearts in cold storage; 6 hours cold storage, HH solution (UW+CCrP), control (UW) 0.31 gm
  heart weight after cold storage: 0.25 gm
Hearts in cold storage; CCrP treated-group (HH) vs saline control
  recovery of contractile function: significantly better
miR-137 [3]; ISO/CCrP 0.4 g/kg
  reduction of miR-137 gene expression: 33%
miR-137 [3]; ISO/CCrP 0.8 g/kg
  reduction of miR-137 gene expression: 75%
miR-137 [3]; ISO/CCrP 1.2 g/kg
  reduction of miR-137 gene expression: 68%
miR-137 [3]; healthy rats, CCrP 0.8 g/kg, saline-treated healthy rats 1.15
  miR-137 gene expression (Mean): 1.60
mRNA-FTHL-17; ISO/CCrP 0.4 g/kg
  reduction of mRNA-FTHL-17 gene expression: 16%
mRNA-FTHL-17; ISO/CCrP 0.8 g/kg
  reduction of mRNA-FTHL-17 gene expression: 30%
mRNA-FTHL-17; ISO/CCrP 1.2 g/kg
  reduction of mRNA-FTHL-17 gene expression: 75%
mRNA-FTHL-17; healthy rats, CCrP 0.8 g/kg, saline-treated healthy rats 1.01
  mRNA-FTHL-17 gene expression (Mean): 0.67
[4]
  crossing of the blood-brain barrier: crosses blood brain barrier
lncR-CTB89H12.4; ISO/CCrP 0.4 g/kg
  increase of lncR-CTB89H12.4 gene expression: 1.33 fold
lncR-CTB89H12.4; ISO/CCrP 0.8 g/kg
  increase of lncR-CTB89H12.4 gene expression: 7.66 fold
lncR-CTB89H12.4; ISO/CCrP 1.2 g/kg
  increase of lncR-CTB89H12.4 gene expression: 14.33 fold
lncR-CTB89H12.4; healthy rats, CCrP 0.8 g/kg, saline-treated healthy rats 1.1
  lncR-CTB89H12.4 gene expression (Mean): 1.3
miR-106b; ISO/CCrP 0.4 g/kg
  reduction of miR-106b gene expression: 18%
miR-106b; ISO/CCrP 0.8 g/kg
  reduction of miR-106b gene expression: 44%
miR-106b; ISO/CCrP 1.2 g/kg
  reduction of miR-106b gene expression: 72%
miR-106b; healthy rats, CCrP 0.8 g/kg, saline-treated healthy rats 4.62
  miR-106b gene expression (Mean): 5.62
ISO rat model of HF; ISO/CCrP 0.4 g/kg
  Ejection Fraction (EF %) by ECHO: 54%
ISO rat model of HF; ISO/CCrP 0.4 g/kg, day 14
  collagen %: 3.3%
ISO rat model of HF; ISO/CCrP 0.4 g/kg, day 14, ISO 0.8 mg, normal saline 0.6 mg
  heart weight: 0.7
ISO rat model of HF; ISO/CCrP 0.8 g/kg, 24 hours after last ISO injection, ISO 206.20±6.25, control saline 82.60±5.2
  Serum CK-MB: 70.67±5.79 U/L
ISO rat model of HF; ISO/CCrP 0.8 g/kg, day 14
  heart weight: 0.6
ISO rat model of HF; ISO/CCrP 0.8 g/kg/day, ISO 36, control saline 64
  Ejection Fraction (EF %) by ECHO: 64%
ISO rat model of HF; ISO/CCrP 0.8 g/kg/day, day 14
  myocardial fibrosis (Masson's trichrome): very low fibrosis; also recorded: delicate fibrous tissue between the myocardial bundles, almost similar to healthy normal rats
ISO rat model of HF; ISO/CCrP 0.8 g/kg/day, day 14, ISO/saline 4.1
  collagen %: 0.7%
ISO rat model of HF; ISO/CCrP 1.2 g/kg
  Ejection Fraction (EF %) by ECHO: 59%
ISO rat model of HF; ISO/CCrP 1.2 g/kg, day 14
  collagen %: 0.2%
  heart weight: 0.7
ISO rat model of HF; ISO/CCrP group (n=5), day 14 before sacrifice
  physical activity: high physical activity
Rat grafted hearts
  general overall survival of the cardiac tissue of grafted hearts: very good to excellent
Healthy rats; control healthy rats, CCrP 0.8 g/kg/day, day 14
  myocardial fibrosis (Masson's trichrome): no fibrosis
Healthy rats; healthy rats, CCrP 0.8 g/kg daily for 14 days
  toxicity in heart, liver and renal function: no toxicity; also recorded: no observed toxic effect
Healthy rats; normal rats, CCrP 0.8 g/kg IP daily for 14 days
  levels of liver enzyme ALT, kidney Creatinine and Urea, CCrP vs saline: no significant difference; also recorded: no significance difference
Healthy rats; normal rats, CCrP 0.8 g/kg daily for 14 days
  heart weight: 0.6
Healthy rats; normal rats, CCrP 0.8 g/kg daily for 14 days, control saline 0.1
  collagen %: 0.1%
Healthy rats; normal rats, CCrP 0.8 g/kg daily for 14 days, control saline 64
  Ejection Fraction (EF %) by ECHO: 61%

— patent US11761966B2, “Nourin gene-based RNA molecular network: novel early diagnostic and prognostic biomarkers for coronary artery disease, unstable angina, STEMI/NSTEMI and heart failure” (Nour Heart, Inc., priority 2018, dated 2023)
